ChEMBL document CHEMBL4387782, “A new approach to procyanidins synthesis with potent anti-adipogenic effects” (Bioorg Med Chem Lett, 2019)
Calls of active or inactive are those of the source. No cut-off for these calls is given here.

How the values were obtained:
[1] = molecular target: T1, Pancreatic triacylglycerol lipase (Sus scrofa, UniProt P00591); test: Inhibition of porcine pancreatic lipase using pNPB as substrate measured after 30 mins
T1 sequence (P00591 whole entry): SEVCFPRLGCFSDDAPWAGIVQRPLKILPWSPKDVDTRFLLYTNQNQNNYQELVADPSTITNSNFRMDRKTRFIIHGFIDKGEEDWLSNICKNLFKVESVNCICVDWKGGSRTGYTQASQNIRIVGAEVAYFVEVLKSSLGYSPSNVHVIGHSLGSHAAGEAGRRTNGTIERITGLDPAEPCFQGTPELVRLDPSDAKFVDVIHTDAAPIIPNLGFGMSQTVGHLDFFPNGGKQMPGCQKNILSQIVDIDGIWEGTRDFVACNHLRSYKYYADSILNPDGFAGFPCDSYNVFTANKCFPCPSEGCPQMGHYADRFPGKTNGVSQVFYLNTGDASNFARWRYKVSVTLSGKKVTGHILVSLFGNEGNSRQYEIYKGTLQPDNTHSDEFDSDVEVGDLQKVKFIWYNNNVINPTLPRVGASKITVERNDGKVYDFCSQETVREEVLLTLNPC

[2] = molecular target: T1, Pancreatic triacylglycerol lipase; test: Inhibition of porcine pancreatic lipase using pNPB as substrate measured after 30 mins using plasma treated sample
[3] = test system: 3T3-L1; test: Cytotoxicity against mouse 3T3L1 cells assessed as effect on cell viability up to 50 uM by MTT assay; type: cell-based
[4] = test system: 3T3-L1; test: Anti-adipogenic activity in mouse 3T3L1 preadipocytes assessed as decrease in lipid accumulation at 10 uM incubated for 8 days in differentiation media by Oil Red O staining based ELISA relative to control; type: functional; set-up: scale not given: the % may be the effect or the level left
[5] = test system: 3T3-L1; test: Anti-adipogenic activity in mouse 3T3L1 preadipocytes assessed as decrease in lipid accumulation at 2.5 uM incubated for 8 days in differentiation media by Oil Red O staining based ELISA relative to control; type: functional; set-up: scale not given: the % may be the effect or the level left
[6] = test system: 3T3-L1; test: Inhibition of cell differentiation in mouse 3T3L1 cells assessed as reduction in pre-adipocyte differentiation into matured adipocytes at 2.5 to 10 uM incubated for 8 days in differentiation media by oil red O staining based method; type: functional
[7] = test system: 3T3-L1; test: Anti-adipogenic activity in mouse 3T3L1 preadipocytes assessed as decrease in lipid accumulation at 5 uM incubated for 8 days in differentiation media by Oil Red O staining based ELISA relative to control; type: functional; set-up: scale not given: the % may be the effect or the level left
[8] = Cytotoxicity against mouse 3T3L1 cells assessed as reduction in cell viability after 48 hrs by sulforhodamine B assay; type: cell-based; details: 3T3-L1 cells

Row | Compound | IC50 [1] | IC50 [2] | Activity [3] | Activity [4] | Activity [5] | inhibition [6] | Activity [7] | MNTC at 48 h [8]
1 | Oc1cc(O)c2c(c1)O[C@H](c1ccc(O)c(O)c1)[C@@H](O)C2 [CIANIDANOL] | > 500 µM | 340 µM | – | – | – | – | – | –
2 | Oc1ccc([C@H]2Oc3c(Cc4c(O)c(Cc5c(O)cc(O)c6c5O[C@H](c5ccc(O)c(O)c5)[C@@H](O)C6)c5c(c4O)C[C@H](O)[C@@H](c4ccc(O)c(O)c4)O5)c(O)cc(O)c3C[C@@H]2O)cc1O | 45.9 µM | – | Non-Toxic | – | – | Active | – | 50 µM
3 | Oc1ccc([C@H]2Oc3cc(O)c(Cc4c(O)cc5c(c4O)C[C@H](O)[C@@H](c4ccc(O)c(O)c4)O5)c(O)c3C[C@@H]2O)cc1O | 78.7 µM | – | Non-Toxic | – | – | Active | – | 50 µM
4 | Oc1ccc([C@H]2Oc3cc(O)c(Cc4c(O)cc(O)c5c4O[C@H](c4ccc(O)c(O)c4)[C@@H](O)C5)c(O)c3C[C@@H]2O)cc1O | 102 µM | – | Non-Toxic | – | – | – | – | 50 µM

The next lines start with results.

Row | IC50 [1] | Compound | IC50 [2] | Activity [3] | Activity [4] | Activity [5] | inhibition [6] | Activity [7] | MNTC at 48 h [8]
5 | 18.8 µM | Oc1ccc([C@H]2Oc3c(Cc4c(O)c(Cc5c(O)c(Cc6c(O)cc(O)c7c6O[C@H](c6ccc(O)c(O)c6)[C@@H](O)C7)c(O)c6c5O[C@H](c5ccc(O)c(O)c5)[C@@H](O)C6)c5c(c4O)C[C@H](O)[C@@H](c4ccc(O)c(O)c4)O5)c(O)cc(O)c3C[C@@H]2O)cc1O | – | Non-Toxic | 67.2% | 40.1% | Active | 52.1% | 50 µM
6 | 110 µM | Oc1ccc([C@H]2Oc3c(Cc4c(O)cc(O)c5c4O[C@H](c4ccc(O)c(O)c4)[C@@H](O)C5)c(O)cc(O)c3C[C@@H]2O)cc1O | – | Non-Toxic | – | – | – | – | 50 µM
